The results in this text go back to ChEMBL document CHEMBL6120974, “Hydrazide-Based Class I Selective HDAC Inhibitors Completely Reverse Chemoresistance Synergistically in Platinum-Resistant Solid Cancer Cells” (J Med Chem, 2024).

For assay [1], the system named is CAL-27. Put plainly: Induction of apoptosis in human CAL-27 cells assessed as increase in caspase 3/7 activation at 0.316 uM in presence of cisplatin preincubated with compound for 48 hrs co-treated with cisplatin and measured after 24 hrs by capase3/7 green dye based analysis. To be noted: time 72.0 hrs. The format is functional, cell-based.
Assay [2] relates to CAL-27. Put plainly: Induction of apoptosis in human CAL-27 cells assessed as increase in Bcl-2 protein level at 0.316 uM incubated for 48 hrs by Immunoblotting analysis. The format is functional, cell-based. Background: Immunoblotting shows a protein as a band on a membrane.
For assay [3], the target named is Histone deacetylase 4 (Homo sapiens, UniProt P56524). Put plainly: Inhibition of recombinant HDAC4 (unknown origin) using Bos-Lys(TFA)-AMC as substrate preincubated with compound for 5 mins and measured after 90 mins by NOVOstar microplate reader analysis.
Assay [4] has as its system A2780. Put plainly: Induction of DNA damage in human A2780 cells assessed as increase in gammaH2AX formation at 0.75 uM in presence of cisplatin at 3.5 uM pretreated with compound for 48 hrs prior to addition of cisplatin and measured after 24 hrs by Hoechst 33342 staining based Immunofluorescence analysis. Format: functional, cell-based. To be noted: time 72.0 hrs.
Assay [5] relates to CAL-27. Put plainly: Induction of apoptosis in human CAL-27 cells assessed as increase in BIM expression at 0.316 uM incubated for 48 hrs by Immunoblotting analysis. Format: functional, cell-based.
Assay [6] in a line: cells. The conditions noted are these: Homo sapiens, A2780cisR.
Description: Inhibition of class I/6 HDAC (unknown origin) in cisplatin resistant human A2780 cisR cells using Boc-Lys(epsilon-Ac)-AMC as substrate preincubated with compound for 18 hrs followed by substrate addition and measured after 3 hrs by NOVOstar microplate reader analysis
Assay [7] can be described thus: cells. To be noted: Homo sapiens, CAL-27.
Description: Inhibition of class I/6 HDAC (unknown origin) in human CAL-27 cells using Boc-Lys(epsilon-Ac)-AMC as substrate preincubated with compound for 18 hrs followed by substrate addition and measured after 3 hrs by NOVOstar microplate reader analysis
For assay [8], the system named is Cal27CisR. Put plainly: Induction of apoptosis in human Cal27CisR cells assessed as increase in BIM expression at 0.316 uM incubated for 48 hrs by Immunoblotting analysis. The format is functional, cell-based.
The target of assay [9] is T1, Protein deacetylase HDAC6 (Homo sapiens, UniProt Q9UBN7).
T1 sequence (Q9UBN7 whole entry): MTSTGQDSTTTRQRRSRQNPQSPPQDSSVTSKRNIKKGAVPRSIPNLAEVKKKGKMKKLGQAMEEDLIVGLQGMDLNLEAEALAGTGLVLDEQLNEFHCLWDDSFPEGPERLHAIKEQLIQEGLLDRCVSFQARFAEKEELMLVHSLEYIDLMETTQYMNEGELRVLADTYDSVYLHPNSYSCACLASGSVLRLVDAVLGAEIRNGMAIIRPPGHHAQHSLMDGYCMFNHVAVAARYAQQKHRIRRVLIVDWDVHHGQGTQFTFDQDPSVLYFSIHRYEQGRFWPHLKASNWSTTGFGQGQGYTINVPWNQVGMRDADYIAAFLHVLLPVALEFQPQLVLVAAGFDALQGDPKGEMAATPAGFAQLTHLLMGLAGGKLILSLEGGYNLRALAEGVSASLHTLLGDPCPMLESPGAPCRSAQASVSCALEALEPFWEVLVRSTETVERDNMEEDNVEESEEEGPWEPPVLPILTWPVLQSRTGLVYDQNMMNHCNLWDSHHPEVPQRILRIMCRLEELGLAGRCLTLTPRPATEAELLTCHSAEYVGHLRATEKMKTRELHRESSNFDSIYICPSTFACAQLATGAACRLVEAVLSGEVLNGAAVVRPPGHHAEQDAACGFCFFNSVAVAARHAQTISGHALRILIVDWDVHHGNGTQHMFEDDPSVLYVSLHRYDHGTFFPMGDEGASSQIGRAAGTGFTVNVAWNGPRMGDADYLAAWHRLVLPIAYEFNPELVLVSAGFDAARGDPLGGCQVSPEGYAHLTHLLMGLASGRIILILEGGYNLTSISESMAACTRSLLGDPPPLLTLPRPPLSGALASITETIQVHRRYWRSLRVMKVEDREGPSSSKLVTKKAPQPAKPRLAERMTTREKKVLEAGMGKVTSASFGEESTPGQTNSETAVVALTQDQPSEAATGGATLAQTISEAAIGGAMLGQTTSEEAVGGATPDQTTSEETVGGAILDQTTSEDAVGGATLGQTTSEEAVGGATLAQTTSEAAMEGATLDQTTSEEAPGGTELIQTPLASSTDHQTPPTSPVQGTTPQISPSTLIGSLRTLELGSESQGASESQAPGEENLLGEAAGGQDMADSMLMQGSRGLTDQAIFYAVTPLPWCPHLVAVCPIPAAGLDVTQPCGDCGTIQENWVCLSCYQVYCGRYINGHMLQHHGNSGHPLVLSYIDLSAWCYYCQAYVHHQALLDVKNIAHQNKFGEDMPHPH
Put plainly: Inhibition of N-terminal GST-tagged full length recombinant human HDAC6 (1 to 1215 end residues) expressed in sf9 cells using ZMAL (Z-Lys(Ac)-AMC as fluorogenic substrate preincubated with compound for 60 mins followed by substrate addition and measured after 90 mins by fluorescence based microplate reader analysis.

Assay [10] has as its system A2780cisR. Put plainly: Induction of apoptosis in cisplatin resistant human A2780 cisR cells assessed as increase in Bcl-2 protein level at 2 uM in presence of cisplatin at 16 uM preincubated with compound for 48 hrs prior to addition of cisplatin and measured after 24 hrs by Immunoblotting analysis. The conditions noted are these: time 72.0 hrs. Format: functional, cell-based.

For assay [11], the system named is CAL-27. Put plainly: Downregulation of BAX expression in human CAL-27 cells at 0.316 uM incubated for 48 hrs by Immunoblotting analysis. Format: functional, cell-based.
Assay [12] deals with MV4-11. Put plainly: cells. To be noted: Homo sapiens, MV4-11, 72 h.
Description: Cytotoxicity against human MV4-11 cells harboring wild type p53 assessed as cell viability incubated for 72 hrs by MTT assay
The test system of assay [13] is A2780cisR. Put plainly: Effect on survivin expression in human cisplatin resistant human A2780 cisR cells at 2 uM in presence of cisplatin at 16 uM preincubated with compound for 48 hrs prior to addition of cisplatin and measured after 24 hrs by Immunoblotting analysis. The format is functional, cell-based. To be noted: time 72.0 hrs.
Assay [14] has as its system CAL-27. Put plainly: Induction of cell cycle arrest in human CAL-27 cells assessed as increase in p21 expression at 0.316 uM incubated for 48 hrs by Western blotting analysis. Format: functional, cell-based.
Assay [15] can be described thus: cells. The conditions noted are these: Homo sapiens, A2780cisR. This is another data set of the same source.
Description: Inhibition of class IIa/8 HDAC (unknown origin) in cisplatin resistant human A2780 cisR cells using Boc-Lys(TFA)-AMC as substrate preincubated with compound for 18 hrs followed by substrate addition and measured after 3 hrs by NOVOstar microplate reader analysis
Assay [16] relates to A2780cisR. Put plainly: cells. The conditions noted are these: Homo sapiens, 72 h.
Assay [17] deals with Cal27CisR. Put plainly: Induction of apoptosis in cisplatin resistant human Cal27CisR cells assessed as increase in BIM expression at 0.316 uM in presence of cisplatin at 16.5 uM preincubated with compound for 48 hrs prior to addition of cisplatin and measured after 24 hrs by Immunoblotting analysis. Format: functional, cell-based. The conditions noted are these: time 72.0 hrs.

Assay [18] has as its system Cal27CisR. Put plainly: Induction of apoptosis in cisplatin resistant human Cal27CisR cells assessed as increase in Bcl-2 protein level at 0.316 uM incubated for 48 hrs by Immunoblotting analysis. Format: functional, cell-based.
For assay [19], the system named is A2780cisR. Put plainly: Induction of apoptosis in cisplatin resistant human A2780 cisR cells assessed as increase in caspase 3/7 activation at 2 uM in presence of cisplatin preincubated with compound for 48 hrs co-treated with cisplatin and measured after 24 hrs by capase3/7 green dye based analysis. The format is functional, cell-based. To be noted: time 72.0 hrs.

The test system of assay [20] is Cal27CisR. Put plainly: Induction of apoptosis in cisplatin resistant human Cal27CisR cells assessed as increase in Bcl-2 protein level at 0.316 uM in presence of cisplatin at 16.5 uM preincubated with compound for 48 hrs prior to addition of cisplatin and measured after 24 hrs by Immunoblotting analysis. Format: functional, cell-based. The conditions noted are these: time 72.0 hrs.

In assay [21] the test system is CAL-27. Put plainly: Induction of apoptosis in human CAL-27 cells assessed as apoptotic nuclei at sub-G1 phase at 0.316 uM incubated for 48 hrs by flow cytometric analysis. Format: functional, cell-based. In general terms: A flow cytometer gives signals particle by particle.

Active and inactive are the calls of the source. No cut-off for these calls is given here. Some results are limits rather than exact numbers.

Usually IC50 stands for the concentration that gives 50% inhibition.

Histone deacetylase 4, sequence (P56524 whole entry): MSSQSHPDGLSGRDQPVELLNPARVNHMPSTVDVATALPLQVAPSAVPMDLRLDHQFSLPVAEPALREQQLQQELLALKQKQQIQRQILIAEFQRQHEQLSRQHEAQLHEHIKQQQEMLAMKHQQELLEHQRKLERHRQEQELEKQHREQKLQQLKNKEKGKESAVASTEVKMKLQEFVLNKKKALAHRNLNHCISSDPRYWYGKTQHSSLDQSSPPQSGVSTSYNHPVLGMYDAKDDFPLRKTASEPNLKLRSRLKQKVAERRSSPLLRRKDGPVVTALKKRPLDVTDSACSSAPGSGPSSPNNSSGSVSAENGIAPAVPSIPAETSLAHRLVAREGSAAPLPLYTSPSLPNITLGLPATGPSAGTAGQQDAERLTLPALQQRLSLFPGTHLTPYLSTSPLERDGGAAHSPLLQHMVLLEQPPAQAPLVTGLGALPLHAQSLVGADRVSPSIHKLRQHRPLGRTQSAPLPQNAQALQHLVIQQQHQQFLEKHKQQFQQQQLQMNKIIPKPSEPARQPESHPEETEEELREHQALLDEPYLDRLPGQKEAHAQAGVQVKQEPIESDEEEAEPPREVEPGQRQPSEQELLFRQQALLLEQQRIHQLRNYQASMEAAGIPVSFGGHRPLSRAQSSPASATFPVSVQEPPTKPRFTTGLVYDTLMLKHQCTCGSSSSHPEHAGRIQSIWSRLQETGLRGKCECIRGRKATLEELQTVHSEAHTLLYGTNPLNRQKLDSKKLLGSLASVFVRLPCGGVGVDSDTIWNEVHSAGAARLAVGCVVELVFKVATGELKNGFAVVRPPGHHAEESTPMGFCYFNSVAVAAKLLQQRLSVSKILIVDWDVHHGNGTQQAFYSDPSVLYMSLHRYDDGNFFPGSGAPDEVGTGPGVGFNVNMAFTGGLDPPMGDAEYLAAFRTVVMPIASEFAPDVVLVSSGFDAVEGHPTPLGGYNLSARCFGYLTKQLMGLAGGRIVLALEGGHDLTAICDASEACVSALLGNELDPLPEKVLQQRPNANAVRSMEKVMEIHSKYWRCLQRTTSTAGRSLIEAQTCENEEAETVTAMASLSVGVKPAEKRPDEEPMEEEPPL

In the case of `CCCNNC(=O)c1ccc(CN(CC(=O)NCc2ccccc2)C(=O)c2ccc(N(C)C)cc2)cc1`, the outcome in [1], in [5], in assay [8], in assay [10], in assay [11] and in assay [14] was Active. Besides, the result in [17] and in [19] was Active. Besides, the Activity result in assay [2] is “Not active; Slight Increase Observed”; in [18], “Not active; Slight Increase Observed”; in [20], “Not active; Slight Increase Observed”; in assay [21] it was “Active; Moderate Percentage Of Apoptotic Nuclei Observed”. Besides, the IC50 was over 10000 nM in assay [3]; 295 nM in [6]; 151 nM in assay [7]; over 10000 nM in assay [9]; 194 nM in assay [12]; 12500 nM in [15]. The compound further displayed an IC50 in [16] of 2460 nM. Further, the outcome in assay [4] and in [13] was inactive.

As to `CCCCNNC(=O)c1ccc(CN(CC(=O)NCc2ccccc2)C(=O)c2ccc(N(C)C)cc2)cc1`, the result in assay [1], in [5], in [8], in assay [10], in assay [11] and in assay [14] was Active. Moreover, the result in [17] and in assay [19] was Active. Besides, the Activity result is “Not active; Slight Increase Observed” in assay [2], “Not active; Slight Increase Observed” in assay [18], “Not active; Slight Increase Observed” in [20] and “Active; Moderate Percentage Of Apoptotic Nuclei Observed” in assay [21]. Further, the IC50 in assay [3] was over 10000 nM; in assay [6] it was 268 nM; in [7], 166 nM; in assay [9], over 3330 nM; in assay [12], 212 nM; in assay [15], 11000 nM. This compound also came in with an IC50 in assay [16] of 2690 nM. For the same compound, the result in [4] and in assay [13] was inactive.
